Measured values published in patent US20250144110A1, “COMPOSITIONS OF AUTOPHAGY MODULATING AGENTS AND USES THEREOF” (Washington University, priority 2022, published 2025).

Key:
[1] = Liver microsomal stability, human; format: in vitro ADME; settings: human liver microsomes; read-out: LM stability Human t ½
Description: (§1) As described herein, continued lead optimization afforded potent quinolones.

[2] = Liver microsomal stability, mouse; format: in vitro ADME; settings: mouse liver microsomes; read-out: LM stability Mouse t ½
Description: as §1

p62/SQSTM1 in HD-MSNs = assay: p62 immunoblot in HD-MSNs; format: cell-based, human; settings: 0.5 μM, PID26, vs DMSO
Method: (§2) FIG. 1A-FIG. 1E is an exemplary embodiment showing autophagy activator rescues HD-MSNs from degeneration in accordance with the present disclosure. FIG. 1A depicts the chemical structure of Ex 3. FIG. 1B includes a representative immunoblot (left) for steady state levels of α1-antitrypsin Z variant (ATZ) and β-actin in the HTO/Z cell line model of α1-antitrypsin deficiency after 24 hr treatment with DMSO alone or Ex 3 in DMSO at 0.5 and 2.5 μM and a bar graph showing the normalized intensity (right) calculated from immunoblot images for 0.5 μM versus DMSO control (Individual data plotted, n=4 biological replicates; *p=0.003 by t-test; mean+/−s.e.m). FIG. 1C includes an immunoblot for p62 and GAPDH in HD-MSNs treated with DMSO or 0.5 μM Ex 3 at PID26 (left) and a bar graph showing intensity values were normalized by GAPDH intensities and the relative fold change over DMSO condition was calculated from immunoblot images of three independent HD-MSN lines (right). Each dot represents reprogrammed MSNs from three independent HD-MSN lines. […] FIG. 1E includes example photographs (top) of HD-MSNs treated with DMSO or 0.5 μM Ex 3 (PID 30) expressing the tandem monomeric RFP-GFP-LC3 reporter and a bar graph (bottom) showing quantification of autophagosome (i.e., RFP+, GFP+ puncta) and autolysosome (i.e., RFP+, GFP− puncta) compartments from three independent HD-MSNs. […]

HD-MSNs [3] = assay: HD-MSN death (SYTOX assay); survival of striatal neurons; format: cell-based, human; settings: treated from PID14 every four days for 16 days
Method: as §2

[4] = system: mHTT inclusion bodies in HD-MSNs; assay: HTT inclusion bodies in HD-MSNs; format: cell-based, human; settings: 0.5 μM, PID30, vs DMSO
Method: as §2

HD-MSNs [5] = assay: Autophagic vacuoles by CYTO-ID green in HD-MSNs; format: cell-based, human; settings: 0.5 μM, PID26, vs DMSO
Method: as §2

[6] = system: HD-MSNs expressing the RFP-GFP-LC3 reporter; assay: Tandem RFP-GFP-LC3 reporter in HD-MSNs; format: cell-based, human; settings: 0.5 μM, PID30, vs DMSO
Method: as §2

HD-MSNs [7] = assay: Caspase 3/7 activation and Annexin V signal in HD-MSNs; format: cell-based, human; settings: HD-MSNs at PID30; 0.125, 0.25 or 0.5 uM
Method: as §2

| SMILES | half-life [1] | half-life [2] | p62/SQSTM1 protein levels (p62/SQSTM1 in HD-MSNs) | HD-MSN death (SYTOX-positive cells) (HD-MSNs [3]) | number of mHTT inclusion bodies [4] | number of autophagic vacuoles (CYTO-ID signals) (HD-MSNs [5]) | average number of autophagosomes and autolysosomes [6] | Annexin V signal (HD-MSNs [7]) | activated Caspase 3/7 signal (HD-MSNs [7]) |
| --- | --- | --- | --- | --- | --- | --- | --- | --- | --- |
| O=c1ccc2c(C(F)(F)F)c(-c3ccc(Cl)cn3)ccc2[nH]1 [Ex 97, 6-(5-chloropyridin-2-yl)-5-(trifluoromethyl) quinolin-2 (1H)-one] | > 2.42 h | > 2.42 h |  |  |  |  |  |  |  |
| O=c1ccc2c(Cl)cc(Cl)cc2[nH]1 [Ex 3, 5,7-dichloro-1H-quinolin-2-one] |  | 0.07 h | decreased p62/SQSTM1 protein levels | significant reduction in HD-MSN death in a dose-dependent manner | reduced the number of mHTT inclusion bodies | increased the number of autophagic vacuoles | increased the average number of autophagosomes and autolysosomes | significant reduction | significant reduction |
